Results reported in patent US7829665B2 (priority 2005, dated 2010).
Where two headings read alike, the source gives them in different places.

Legend:
[1] = test system: HCV sub-genomic replicon in GS4.3 cells (HuH-7 hepatoma cells); assay: Quantitation by ELISA of Neomycin phosphotransferase II (NPTII) in the HCV sub-genomic replicon, GS4.3; assay type: cell-based, hepatitis C virus; conditions: Hepatitis C virus
Method: The HCV sub-genomic replicon (1377/NS3-3′, accession No. AJ242652), stably maintained in HuH-7 hepatoma cells, was created by Lohmann et al. Science 285: 110-113 (1999). The replicon-containing cell culture, designated GS4.3, was obtained from Dr. Christoph Seeger of the Institute for Cancer Research, Fox Chase Cancer Center, Philadelphia, Pa.
GS4.3 cells were maintained at 37° C., 5% CO2, in DMEM (Gibco 11965-092) supplemented with L-glutamine 200 mM (100×) (Gibco25030-081), non-essential amino acids (NEAA) (Biowhittaker 13-114E), heat-inactivated (HI) Fetal Bovine Serum (FBS) (Hyclone SH3007.03) and 750 μg/ml geneticin (G418) (Gibco 10131-035). Cells were sub-divided 1:3 or 4 every 2-3 days.
24 h prior to the assay, GS4.3 cells were collected, counted, and plated in 96-well plates (Costar 3585) at 7500 cells/well in 100 μl standard maintenance medium (above) and incubated in the conditions above. To initiate the assay, culture medium was removed, cells were washed once with PBS (Gibco 10010-023) and 90 μl Assay Medium (DMEM, L-glutamine, NEAA, 10% HI FBS, no G418) was added. Inhibitors were made as a 10× stock in Assay Medium, (3-fold dilutions from 10 μM to 56 pM final concentration, final DMSO concentration 1%), 10 μl were added to duplicate wells, plates were rocked to mix, and incubated as above for 72 h.
An NPTII Elisa kit was obtained from AGDIA, Inc. (Compound direct ELISA test system for Neomycin Phosphotransferase II, PSP 73000/4800). Manufacturer's instructions were followed, with some modifications. 10×PEB-1 lysis buffer was made up to include 500 μM PMSF (Sigma P7626, 50 mM stock in isopropanol). After 72 h incubation, cells were washed once with PBS and 150 μl PEB-1 with PMSF was added per well. Plates were agitated vigorously for 15 minutes, room temperature, then frozen at −70° C. Plates were thawed, lysates were mixed thoroughly, and 100 μl were applied to an NPTII Elisa plate. A standard curve was made. Lysate from DMSO-treated control cells was pooled, serially diluted with PEB-1 with PMSF, and applied to duplicate wells of the ELISA plate, in a range of initial lysate amount of 150 ul-2.5 ul. In addition, 100 μl buffer alone was applied in duplicate as a blank. Plates were sealed and gently agitated at room temperature for 2 h. Following capture incubation, the plates were washed 5×300 μl with PBS-T (0.5% Tween-20, PBS-T was supplied in the ELISA kit). For detection, a 1× dilution of enzyme conjugate diluent MRS-2 (5×) was made in PBS-T, into which 1:100 dilutions of enzyme conjugates A and B were added, as per instructions. Plates were resealed, and incubated with agitation, covered, room temperature, for 2 h. The washing was then repeated and 100 μl of room temperature TMB substrate was added. After approximately 30 minutes incubation (room temperature, agitation, covered), the reaction was stopped with 50 μl 3M sulfuric acid. Plates were read at 450 nm on a Molecular Devices Versamax plate reader.
Inhibitor effect was expressed as a percentage of DMSO-treated control signal, and inhibition curves were calculated using a 4-parameter equation: y=A+((B−A)/(1+((C/x)^D))), where C is half-maximal activity or EC50.

[2] = target: T1, full-length NS3/NS4A-2 (HCV NS3 protease) (Hepatitis C virus genotype 1a, UniProt P27958); assay: NS3-NS4 protease assay / NS3 inhibition assay (RETS1 substrate, fluorescence kinetic read); assay type: biochemical; conditions: read-out: NS3-NS4 IC50
T1 construct: Recombinant E. coli or Baculovirus full-length NS3 was diluted to 3.33 μM with assay buffer; made in house; host or cells: E. coli or baculovirus (BV) expression system
T1 sequence (P27958 1027-1657): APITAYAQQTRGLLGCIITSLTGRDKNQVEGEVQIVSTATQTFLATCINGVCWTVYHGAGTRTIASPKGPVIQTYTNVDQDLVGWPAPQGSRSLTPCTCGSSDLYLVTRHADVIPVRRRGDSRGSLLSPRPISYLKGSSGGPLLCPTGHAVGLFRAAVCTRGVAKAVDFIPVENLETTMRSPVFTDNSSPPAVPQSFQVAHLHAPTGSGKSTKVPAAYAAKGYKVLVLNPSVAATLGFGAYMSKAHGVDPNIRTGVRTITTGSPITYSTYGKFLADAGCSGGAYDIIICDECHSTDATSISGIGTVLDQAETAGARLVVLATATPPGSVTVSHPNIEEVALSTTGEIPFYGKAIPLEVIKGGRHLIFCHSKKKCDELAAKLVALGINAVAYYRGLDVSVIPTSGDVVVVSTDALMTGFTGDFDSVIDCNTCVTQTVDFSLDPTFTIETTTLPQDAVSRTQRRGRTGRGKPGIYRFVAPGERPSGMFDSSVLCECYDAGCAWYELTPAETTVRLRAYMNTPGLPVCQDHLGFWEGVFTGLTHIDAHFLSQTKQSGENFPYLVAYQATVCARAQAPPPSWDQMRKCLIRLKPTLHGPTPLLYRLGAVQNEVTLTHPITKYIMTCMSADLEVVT
Summary of the method: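 Full-length NS3 from E. coli (2 nM in assay) or baculovirus (3 nM) was precomplexed with excess NS4A-2 peptide, then preincubated 10 min at room temperature with serially diluted compounds starting at 50 microM. Reaction was started with RETS1 substrate at 8 μM before addition and read kinetically for 30 min (ex 335/em 495 nm). Four-parameter IC50s were converted to Ki by Cheng-Prusoff using Km 2.03 μM (E. coli) or 1.74 μM (BV).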

[3] = Huh-7, GS4.3 cells, 72 h incubation, NPTII ELISA, read-out: Replicon EC50
[4] = recombinant E. coli or Baculovirus full-length NS3 with NS4A-2

SMILES	EC50 [1, 3] [µM]	IC50 [2, 4] [µM]	further results
CC(C)(C)OC(=O)NC1CCCCC/C=C\[C@H]2C[C@@]2(C(=O)NS(=O)(=O)NCC(F)(F)F)NC(=O)C2CC(OC(=O)N3Cc4cccc(Cl)c4C3)CN2C1=O (single isomer, unassigned) [Compound 226]	< 0.1		
O=C(N[C@H]1CCCCC/C=C\[C@@H]2C[C@@]2(C(=O)NS(=O)(=O)C2CC2)NC(=O)[C@@H]2C[C@@H](OC(=O)N3Cc4cccc(F)c4C3)CN2C1=O)C(O)C(F)(F)F (single isomer, unassigned) [Compound 247]	< 0.1		
CC(C)(C)OC(=O)N[C@H]1CCCCC/C=C\[C@@H]2C[C@@]2(C(=O)NS(=O)(=O)C2(C)CC2)NC(=O)[C@@H]2C[C@@H](OC(=O)N3Cc4ccccc4C3)CN2C1=O [Compound 100, (1S,4R,6S,14S,18R)-1,3-Dihydro-isoindole-2-carboxylic acid 14-tert-butoxycarbonylamino-4-(1-methylcyclopropane-1-sulfonyl)aminocarbonyl-2,15-dioxo-3,16-diaza-tricyclo[14.3.0.0^4,6]nonadec-7-en-18-yl ester]			EC50 ([1]; Huh-7, 72 h, read-out: Replicon EC50): < 0.1 µM
CC(C)(C)OC(=O)N[C@H]1CCCCC/C=C\[C@@H]2C[C@@]2(C(=O)NS(=O)(=O)C2(Cc3ccccc3)CC2)NC(=O)[C@@H]2C[C@@H](OC(=O)N3Cc4ccccc4C3)CN2C1=O [Compound 101]	< 0.1	< 0.1	
CC(C)(C)OC(=O)N[C@H]1CCCCC/C=C\[C@@H]2C[C@@]2(C(=O)NS(=O)(=O)C(C)(C)C)NC(=O)[C@@H]2C[C@@H](OC(=O)N3Cc4ccccc4C3)CN2C1=O [Compound 102]	< 1	< 0.1	
COCC1(S(=O)(=O)NC(=O)[C@@]23C[C@H]2/C=C\CCCCC[C@H](NC(=O)OC(C)(C)C)C(=O)N2C[C@H](OC(=O)N4Cc5ccccc5C4)C[C@H]2C(=O)N3)CC1 [Compound 103]	< 0.1	< 0.1	
CCCC1(S(=O)(=O)NC(=O)[C@@]23C[C@H]2/C=C\CCCCC[C@H](NC(=O)OC(C)(C)C)C(=O)N2C[C@H](OC(=O)N4Cc5ccccc5C4)C[C@H]2C(=O)N3)CC1 [Compound 104]	< 0.1	< 0.1	
C=CCC1(S(=O)(=O)NC(=O)[C@@]23C[C@H]2/C=C\CCCCC[C@H](NC(=O)OC(C)(C)C)C(=O)N2C[C@H](OC(=O)N4Cc5ccccc5C4)C[C@H]2C(=O)N3)CC1 [Compound 105]	< 0.1	< 0.1	
COCC1c2cccc(F)c2CCN1C(=O)O[C@@H]1CC2C(=O)N[C@]3(C(=O)NS(=O)(=O)C4CC4)C[C@H]3/C=C\CCCCC[C@H](N)C(=O)N2C1 (some centres unmarked) [Compound 106]	> 10	< 1	
N[C@H]1CCCCC/C=C\[C@@H]2C[C@@]2(C(=O)NS(=O)(=O)C2CC2)NC(=O)[C@@H]2C[C@@H](OC(=O)N3Cc4cccc(F)c4C3)CN2C1=O [Compound 107]	< 10	< 0.1	
CC(C)(C)OC(=O)N[C@H]1CCCCC/C=C\[C@@H]2C[C@@]2(C(=O)NS(=O)(=O)c2cnccc2Cl)NC(=O)[C@@H]2C[C@@H](OC(=O)N3Cc4ccccc4C3)CN2C1=O [Compound 108]	< 10	< 0.1	
CC(C)(C)OC(=O)N[C@H]1CCCCC/C=C\[C@@H]2C[C@@]2(C(=O)O)NC(=O)[C@@H]2C[C@@H](OC(=O)N3Cc4ccc(F)cc4C3)CN2C1=O [Compound 109]	< 10	< 0.1	
CC(C)(C)OC(=O)N[C@H]1CCCCC/C=C\[C@@H]2C[C@@]2(C(=O)O)NC(=O)[C@@H]2C[C@@H](OC(=O)N3Cc4ccc(C(F)(F)F)cc4C3)CN2C1=O [Compound 110]	< 10	< 1	
CC(C)(C)OC(=O)N[C@H]1CCCCC/C=C\[C@@H]2C[C@@]2(C(=O)NS(=O)(=O)C2CC2)NC(=O)[C@@H]2C[C@@H](OC(=O)N3Cc4ccc(F)cc4C3)CN2C1=O [Compound 111]	< 0.1	< 0.1	
CC(C)(C)OC(=O)N[C@H]1CCCCC/C=C\[C@@H]2C[C@@]2(C(=O)NS(=O)(=O)C2CC2)NC(=O)[C@@H]2C[C@@H](OC(=O)N3Cc4ccc(C(F)(F)F)cc4C3)CN2C1=O [Compound 112]	< 0.1	< 0.1	
CC(C)(C)OC(=O)N[C@H]1CCCCC/C=C\[C@@H]2C[C@@]2(C(=O)O)NC(=O)[C@@H]2C[C@@H](OC(=O)N3Cc4cccc(Cl)c4C3)CN2C1=O [Compound 113]	< 1	< 0.1	
CN(C)S(=O)(=O)NC(=O)[C@@]12C[C@H]1/C=C\CCCCC[C@H](NC(=O)OC(C)(C)C)C(=O)N1C[C@H](OC(=O)N3Cc4cccc(Cl)c4C3)C[C@H]1C(=O)N2 [Compound 114]	< 0.1	< 0.1	
CC(C)(C)OC(=O)N[C@H]1CCCCC/C=C\[C@@H]2C[C@@]2(C(=O)NS(=O)(=O)C2CC2)NC(=O)[C@@H]2C[C@@H](OC(=O)N3Cc4cccc(Cl)c4C3)CN2C1=O [Compound 115]	< 0.1	< 0.1	
O=C(N[C@H]1CCCCC/C=C\[C@@H]2C[C@@]2(C(=O)O)NC(=O)[C@@H]2C[C@@H](OC(=O)N3Cc4cccc(F)c4C3)CN2C1=O)OC1CCCC1 [Compound 116]	< 10	< 0.1	
O=C(N[C@H]1CCCCC/C=C\[C@@H]2C[C@@]2(C(=O)NS(=O)(=O)c2ccccc2)NC(=O)[C@@H]2C[C@@H](OC(=O)N3CCc4ccccc4C3)CN2C1=O)OC1CCCC1 [Compound 117]	< 0.1	< 0.1	
CCOC(=O)[C@@]12C[C@H]1/C=C\CCCCC[C@H](N)C(=O)N1C[C@H](OC(=O)N3Cc4ccccc4C3)C[C@H]1C(=O)N2 [Compound 121]	< 1	< 1	
O=C(N[C@H]1CCCCC/C=C\[C@@H]2C[C@@]2(C(=O)O)NC(=O)[C@@H]2C[C@@H](OC(=O)N3Cc4cccc(F)c4C3)CN2C1=O)C1CCC1 [Compound 122]	< 10	< 0.1	
O=C(N[C@H]1CCCCC/C=C\[C@@H]2C[C@@]2(C(=O)O)NC(=O)[C@@H]2C[C@@H](OC(=O)N3Cc4ccccc4C3)CN2C1=O)C1CC1 [Compound 123]	< 10	< 0.1	
C[C@@H](NC(=O)O[C@@H]1C[C@H]2C(=O)N[C@]3(C(=O)NS(=O)(=O)C4CC4)C[C@H]3/C=C\CCCCC[C@H](NC(=O)OC(C)(C)C)C(=O)N2C1)c1ccc(F)cn1 [Compound 150]	> 10		
O=C(CCC(F)(F)F)N[C@H]1CCCCC/C=C\[C@@H]2C[C@@]2(C(=O)NS(=O)(=O)C2CC2)NC(=O)[C@@H]2CCCN2C1=O [Compound 2139]			EC50 ([1]; Huh-7, Table 26, read-out: EC50): < 1 µM
CC(C)(C)OC(=O)N[C@H]1CCCCC/C=C\[C@@H]2C[C@@]2(C(=O)N[S@@+]([O-])C(C)(C)C)NC(=O)[C@@H]2C[C@@H](OC(=O)N3Cc4ccccc4C3)CN2C1=O [Compound 2601, (1S,4R,6S,14S,18R)-1,3-Dihydro-isoindole-2-carbonyloxylic acid 14-tert-butoxycarbonylamino-4-((S)-2-methylpropane-2-sulfinyl)aminocarbonyl-2,15-dioxo-3,16-diaza-tricyclo[14.3.0.0^4,6]nonadec-7-ene-18-yl ester]			IC50 ([2]; Table 25): > 10 µM
CC(C)(C)OC(=O)N[C@H]1CCCCC/C=C\[C@@H]2C[C@@]2(C(=O)N[S@+]([O-])C(C)(C)C)NC(=O)[C@@H]2C[C@@H](OC(=O)N3Cc4ccccc4C3)CN2C1=O [Compound 2604]			IC50 ([2]; Table 25): > 10 µM
